Experimental data published in patent US10245255B2, “Compositions and methods for the treatment of obesity and related disorders” (THE REGENTS OF THE UNIVERSITY OF MICHIGAN, priority 2011, dated 2019).
“Also recorded” adds a separate entry of the source.

Tests used:
[1] = High fat diet prevention group: body weight and food intake; format: in vivo, C57BL/6 mice
Procedure: (§1) Wild type male C57BL/6 mice were fed a high fat diet consisting of 45% of calories from fat (D12451 Research Diets Inc., New Brunswick, N.J.) starting at 8 weeks of age for 12-24 weeks, while normal diet C57BL/6 controls were maintained on normal chow diet consisting of 4.5% fat (5002 Lab Diet, Philadelphia, Pa.). Diets containing ω-3 fatty acids were fed as previously described 24. Rosiglitazone treatment was administered for three weeks by addition of the compound to the diet in mice that had been on HFD for 16 weeks. Each mouse consumed on average 3.5 mg/kg rosiglitazone per day. Amlexanox was administered by daily oral gavage. […] Animals were housed in a specific pathogen-free facility with a 12-hour light/12-hour dark cycle and given free access to food and water. All animal use was in compliance with the Institute of Laboratory Animal Research Guide for the Care and Use of Laboratory Animals and approved by the University Committee on Use and Care of Animals at the University of Michigan and UCSD.
The remaining weight of food provided was determined daily for singly housed mice. Daily food consumption was calculated from a three-day average.

[2] = High fat diet prevention group: oral glucose tolerance test; format: in vivo, C57BL/6 mice; details: 25 mg/kg for 8 weeks concurrently with high fat diet
Procedure: as §1
For glucose tolerance tests, after a six-hour fast mice were orally gavaged with glucose at a dose of 1.5 g/kg (C57BL/6 mice) or 1.2 g/kg (ob/ob mice). […] Blood glucose was measured at basal, 15, 30, 45, 60, 90, 120 and 180 minutes from tail blood using the One Touch Ultra glucometer (Lifescan, Milpitas, Calif.).

[3] = Diet-induced obese mice: tissue protein, phosphorylation and gene expression (liver, WAT, BAT); format: in vivo, C57BL/6 mice
Procedure: as §1
Tissues were homogenized in lysis buffer (50 mM Tris, pH 7.5, 5 mM EDTA, 250 mM sucrose, 1% NP40, 2 mM DTT, 1 mM sodium vanadate, 100 mM NaF, 10 mM Na4P2O7, and freshly added protease inhibitor tablet), then incubated for one hour at 4° C. Crude lysates were then centrifuged at 14,000×g for 15 minutes twice and the protein concentration was determined using BioRad Protein Assay Reagent. Samples were diluted in sodium dodecyl sulfate (SDS) sample buffer. Bound proteins were resolved by SDS-polyacrylamide gel electrophoresis and transferred to nitrocellulose membranes (Bio-Rad, Hercules, Calif.). Individual proteins were detected with the specific antibodies and visualised on film using horseradish peroxidase-conjugated secondary antibodies (Bio-Rad, Hercules, Calif.) and Western Lightning Enhanced Chemiluminescence (Perkin Elmer Life Sciences, Waltham, Mass.).
Tissues were fixed in formalin for 3 days. Histology was performed by the University of Michigan Cancer Center Research Histology Laboratory.
Mouse tissues were isolated, rinsed in Phosphate Buffered Saline (PBS), frozen in liquid nitrogen and stored at −80° C. until extraction. Total RNA was extracted from Liver, WAT and BAT tissues as well as differentiated 3T3-L1 cells using the RNeasy Lipid Tissue Kit (Qiagen, Valencia, Calif.) according to the manufacturer's instructions with the inclusion of a DNase digestion step. Total RNA was extracted from BMDM and SVF cells using the RNeasy Kit (Qiagen, Valencia, Calif.) with a DNase step. The Superscript First-Strand Synthesis System for RTPCR (Invitrogen, Grand Island, N.Y.) was used with random primers for reverse transcription. Realtime PCR amplification of the cDNA was performed on samples in triplicate with Power SYBR Green PCR Master Mix (Applied Biosystems, Carlsbad, Calif.) using the Applied Biosystems 7900HT Fast Realtime PCR System. […] Data was analyzed using the 2-ΔΔCT method, and statistical significance was determined using the unpaired heterocedastic Student's t-test with one averaged sample value per mouse.

[4] = Diet-induced obese mice: energy expenditure (metabolic cages) and core body temperature; format: in vivo, C57BL/6 mice; details: 25 mg/kg
Procedure: The University of Michigan Animal Metabolic Phenotyping Core measured oxygen consumption (VO2), carbon dioxide production (VCO2) and spontaneous motor activity during 3 consecutive days using the Comprehensive Laboratory Monitoring System (CLAMS, Columbus Instruments), an integrated open-circuit calorimeter equipped with an optical beam activity monitoring system. The respiratory quotient was calculated by dividing carbon dioxide production by oxygen consumption. The mean values for light and dark cycles were used to analyze statistical significance.
Rectal temperature measurements were performed using a YSI 4600 Precision thermometer (YSI, Inc., Yellow Springs, Ohio).

[5] = Ob/ob mice: body weight, food intake, adipose mass; format: in vivo; details: 100 mg/kg
[6] = Ob/ob mice: liver weight, triglycerides, histology; format: in vivo; details: 100 mg/kg for 14 weeks
3T3-L1 adipocytes = test: 3T3-L1 adipocytes: phosphorylation (immunoblot) and lipolysis; format: cell-based
Procedure: 3T3-L1 fibroblasts (American Type Culture Collection, Manassas, Va.) were cultured and differentiated using standard methods known in the art. […] 3T3-L1 adipocytes were serum starved with 0.5% fetal bovine serum (FBS) in Dulbecco's modified eagle medium (DMEM) prior to treatment. TNFα treatments (50 ng/mL unless otherwise noted) were performed during the 24 hour prior to harvest, after pretreatment with IKKβ inhibitor compound VIII (EMD Biosciences, Philadelphia, Pa.) for 1 hour where indicated. […] Cells were treated with or without 10 nM of insulin for 15 minutes. RAW264.7 cells were serum starved with 0.5% FBS DMEM media and pre-treated with or without Cay-10576 (Cayman Chemical, Ann Arbor, Mich.). The cells were then treated with LPS (0.5 μg/ml) or poly I:C (50 μg/ml) for 1 hour. Cells were harvested for total RNA and analyzed by real-time PCR Cell lysates were resolved on SDS-PAGE and analyzed by immunoblot using the indicated antibodies.

BAT explants = test: Lipid oxidation rate in ex vivo BAT; set-up: species or system mice; details: 5 μM amlexanox, 1 hour
Procedure: Lipid oxidation was determined by the conversion of 3H-palmitic acid to 3H2O.

[7] = cells chronically treated with TNFα

Compound: CC(C)c1ccc2oc3nc(N)c(C(=O)O)cc3c(=O)c2c1 [amlexanox, 2-amino-7-isopropyl-5-oxo-5H-chromeno[2,3-b]pyridine-3-carboxylic acid]
- body weight compared with control diet mice ([1]; 45% fat diet, 25 or 100 mg/kg, throughout 12 weeks): maintained weights equivalent to those of control diet mice
- weight gain produced by high-fat diet ([1]; 45% fat diet, daily gavage, either dose 25 or 100 mg/kg): prevented the weight gain
- weight gain after switching to 60% fat diet ([1]; both doses 25 and 100 mg/kg, after 12 weeks on 45% fat diet): prevented substantial weight gain
- reduction in the area under the curve for glucose (oral glucose tolerance) [2]: 30-40%
- expression of brown fat-specific marker Cidea in BAT ([3]; HFD, 25 mg/kg daily): increased
- UCP1 protein levels in brown fat ([3]; HFD, treatment group): increased
- mitochondrial genes in brown fat ([3]; compared to control): no increases
- signaling through the mTORC1 pathway in BAT ([3]; compared to controls): Reduced signaling
- TBK1 phosphorylation in adipose tissue ([3]; diet induced obese mice): prevented
- high fat diet induction of IKKε protein in adipose tissue ([3]; diet induced obese mice): blocked
- high fat diet-induced increase of S6K phosphorylation in adipose tissue ([3]; diet induced obese mice): largely attenuated
- UCP-1 protein levels in adipose tissue ([3]; diet induced obese mice vs HFD vehicle): increased
- brown fat appearance ([3]; high fat diet): reverted to its normal appearance
- hormone sensitive lipase phosphorylation in adipose tissue ([3]; high fat diet): prevented the reduction
- BAT lipids when amlexanox treatment was stopped ([3]; high fat diet, withdrawal): lipids again accumulated
- genetic measures of hepatosteatosis ([3]; mice with diet induced obesity): similarly reduced
- IKKε protein levels in BAT ([3]; mouse, in vivo): reduced
- TBK1 protein levels in BAT ([3]; mouse, in vivo): reduced
- body temperature (rectal) ([4]; compared to HFD vehicle treated mice): approximate one-degree increase
- exhaled carbon dioxide ([4]; diet induced obese mice, four-week treatment): significantly increased
- oxygen consumption (VO2) ([4]; diet induced obese mice, four-week treatment, vs vehicle): significantly increased; also recorded: significantly higher
- adipose tissue mass [5]: significant decrease
- weight loss ([5]; after 4 weeks of treatment): 7 to 8 g
- large lipid droplets in liver (H & E staining) [6]: largely disseminated
- reduction in liver weight [6]: greater than 20%
- reduction of triglyceride contents in livers [6]: more than 50%
- basal lipolytic rate (glycerol release) (3T3-L1 adipocytes): increased
- poly I:C-stimulated phosphorylation of IRF3 (serine 396) (3T3-L1 adipocytes; 1 hour pre-treatment, 20 μg/ml poly I:C): blocked; also recorded: inhibition
- down regulation of PPARγ produced by TNFα (3T3-L1 adipocytes; [7]): did not affect
- forskolin stimulated hormone sensitive lipase phosphorylation (serine 660) (3T3-L1 adipocytes; [7]): restored; also recorded: partially restores
- phosphorylation of TBK1 at serine 172 in TNFα-treated cells (3T3-L1 adipocytes; [7]): restored
- phosphorylation of TBK1 on serine 172 (3T3-L1 adipocytes; two-fold serial dilution, highest concentration 50 μM, with and without poly I:C): increased phosphorylation; also recorded: induction
- lipid oxidation (3H-palmitic acid to 3H2O) (BAT explants): acutely stimulated
